Some test systems named below: A498 renal; CAKI-1 renal; HCT-116 colon; HL-60(TB) leukemia; HT29 colon; K-562 leukemia; NCI-H460 lung; OVCAR-8 ovarian; RPMI-8226 leukemia; SF-295 CNS; SK-MEL-2 melanoma; SK-MEL-28 melanoma; U251 CNS; UACC-257 melanoma; PC-3 prostate; BT-549 breast.
Holding throughout (test): NCI-60 cell line screen, 48 h

Structures are written as SMILES.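 Five compound concentrations were applied to cells in 96-well plates for 48 hours; endpoints were derived by simple linear interpolation of the resulting dose-response curve. Abbreviation: GI50, concentration required for 50% inhibition of growth. TGI denotes the concentration required for complete inhibition of growth.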 Where only a bound is given, the exact number is not on record here.

These results are taken from PubChem BioAssay (NCI).

As for `C/C(C=O)=C1\C(O)C[C@]1(C)C1CC(C)(C)CC1O` (some centres undefined), the TGI in the test with A498 renal, in the test on CAKI-1 renal, with HCT-116 colon, in the test with HL-60(TB) leukemia, in the test on HT29 colon and with K-562 leukemia was over 100 µM in each case. The TGI in the test with NCI-H460 lung, with OVCAR-8 ovarian, in the test on RPMI-8226 leukemia, with SF-295 CNS, in the test on SK-MEL-2 melanoma and in the test with SK-MEL-28 melanoma was over 100 µM each time. The TGI with U251 CNS and in the test with UACC-257 melanoma was over 100 µM throughout.
As to `CN(C(=O)C1=CCCCCC1)c1ccccc1I`, the TGI in the test on A498 renal, in the test on CAKI-1 renal, in the test with HCT-116 colon, in the test with HL-60(TB) leukemia, in the test on K-562 leukemia and with NCI-H460 lung was over 100 µM in each case. Also, the TGI in the test with OVCAR-8 ovarian, in the test with PC-3 prostate, in the test on RPMI-8226 leukemia, in the test with SF-295 CNS, in the test on SK-MEL-2 melanoma and in the test on SK-MEL-28 melanoma was over 100 µM in each case. The TGI in the test with U251 CNS and in the test on UACC-257 melanoma was over 100 µM each time.
Consider `O=C(Nc1ccc(C(F)(F)F)cc1[N+](=O)[O-])C(=O)C(C(=O)c1ccc2ccccc2c1)C1OC(=O)c2ccccc21` (centres undefined), for which the TGI in the test on A498 renal worked out at 19.7 µM; with CAKI-1 renal, 41.7 µM; in the test with HCT-116 colon, 15.3 µM; in the test with HL-60(TB) leukemia it was 39.6 µM; in the test with HT29 colon it was 23.9 µM; in the test on K-562 leukemia, 47.8 µM. For the same compound, the TGI in the test on NCI-H460 lung is 15.6 µM; in the test with OVCAR-8 ovarian, 19.8 µM; with RPMI-8226 leukemia, over 67.3 µM; in the test on SF-295 CNS, 24.8 µM; in the test with SK-MEL-2 melanoma it was 29.9 µM; with SK-MEL-28 melanoma, 18 µM. Moreover, the figures for the TGI with U251 CNS and with UACC-257 melanoma were 17.5 µM and 24 µM, respectively.
In the case of `O=C(/C=C/c1ccc(O)c(O)c1)NC(CO)C(=O)O` (centres undefined), the TGI in the test on A498 renal, in the test with BT-549 breast, in the test with CAKI-1 renal, in the test on HCT-116 colon, with HT29 colon and in the test on K-562 leukemia was over 100 µM throughout. Moreover, the TGI with NCI-H460 lung, with OVCAR-8 ovarian, in the test on PC-3 prostate, in the test with RPMI-8226 leukemia, with SF-295 CNS and with SK-MEL-2 melanoma was over 100 µM throughout. Also, the TGI in the test on SK-MEL-28 melanoma, in the test on U251 CNS and in the test with UACC-257 melanoma was over 100 µM in each case.
As for `NN/C(=N\S(=O)(=O)c1cc(Cl)c(Oc2ccc([N+](=O)[O-])cc2Cl)c(Cl)c1)Nc1ccc(Cl)cc1`, the TGI is 64.4 µM with A498 renal; 40.9 µM with BT-549 breast; 40.7 µM in the test on CAKI-1 renal; 29.1 µM in the test with HCT-116 colon; 39.1 µM with HT29 colon; over 100 µM in the test on K-562 leukemia. Besides, the TGI in the test on NCI-H460 lung was 31.9 µM; in the test on OVCAR-8 ovarian it was 60.4 µM; with PC-3 prostate it was 81.6 µM; with RPMI-8226 leukemia it was over 100 µM; in the test with SF-295 CNS it was 50.4 µM; in the test with SK-MEL-2 melanoma, 35.3 µM. Besides, the TGI turned out to be 48.3 µM in the test on SK-MEL-28 melanoma, 30.8 µM in the test with U251 CNS and 34.6 µM in the test with UACC-257 melanoma.
Turning to `CC(=O)OCC(OC(C)=O)C(OC(C)=O)C(/C=N/N(C(C)=O)S(=O)(=O)c1ccc(/C=C2\NC(=O)NC2=O)cc1)OC(C)=O` (centres undefined), the TGI with A498 renal, in the test on BT-549 breast, in the test on CAKI-1 renal, with HCT-116 colon, with HT29 colon and with K-562 leukemia was over 100 µM in each case. The TGI in the test with NCI-H460 lung, in the test with OVCAR-8 ovarian, with PC-3 prostate, in the test with RPMI-8226 leukemia, in the test with SF-295 CNS and in the test on SK-MEL-2 melanoma was over 100 µM throughout. Further, the TGI in the test on U251 CNS and with UACC-257 melanoma was over 100 µM each time. Also, in the test with RPMI-8226 leukemia, the GI50 was 0.583 µM.
Turning to `COc1ccc(/C=C2/C(=O)N(C(=O)c3ccc(Cl)cc3)N=C2C)cc1OC`, the TGI in the test on A498 renal, with CAKI-1 renal, in the test with HCT-116 colon, in the test on HL-60(TB) leukemia, with HT29 colon and with K-562 leukemia was over 100 µM each time. The TGI in the test on NCI-H460 lung, in the test with OVCAR-8 ovarian, in the test on RPMI-8226 leukemia, in the test on SF-295 CNS, in the test on SK-MEL-2 melanoma and in the test with SK-MEL-28 melanoma was over 100 µM each time. Besides, the TGI in the test with U251 CNS and with UACC-257 melanoma was over 100 µM throughout.
Take `O=C(CCN(CCO)CCO)Nc1ccc2c(c1)C(=O)c1ccc(NC(=O)CCN(CCO)CCO)cc1C2=O`: the TGI is 37.9 µM in the test with A498 renal; 32.2 µM in the test on CAKI-1 renal; 33.2 µM in the test on HCT-116 colon; 45.7 µM in the test with HL-60(TB) leukemia; over 100 µM in the test with HT29 colon; 74.4 µM with K-562 leukemia. In addition, the TGI in the test on NCI-H460 lung was 22.7 µM; with OVCAR-8 ovarian, over 100 µM; in the test with RPMI-8226 leukemia, over 100 µM; in the test on SF-295 CNS it was over 100 µM; in the test with SK-MEL-2 melanoma, 16.8 µM; in the test on SK-MEL-28 melanoma, 62.6 µM. In addition, the TGI with U251 CNS and in the test with UACC-257 melanoma was over 100 µM throughout.
As to `CSc1nc(C)cc(Nc2ccc(O)c(CN3CCCCC3)c2)n1`, the TGI in the test with A498 renal was 53.1 µM; in the test with BT-549 breast, over 100 µM; in the test on CAKI-1 renal, over 100 µM; in the test with HCT-116 colon, over 100 µM; in the test on HT29 colon, 60.1 µM; in the test with K-562 leukemia it was over 100 µM. Moreover, the TGI is over 100 µM with OVCAR-8 ovarian, 71.4 µM in the test with RPMI-8226 leukemia, over 100 µM in the test with SF-295 CNS and 79.6 µM in the test with SK-MEL-28 melanoma.
As for `CCCCCCCCCC(=O)OCC1(CO)C/C(=C/CC(C(C)C)C(C)C)C(=O)O1` (centres undefined), the TGI with A498 renal is over 100 µM; with BT-549 breast it was over 100 µM; in the test on CAKI-1 renal, 56.6 µM; in the test with HCT-116 colon, over 100 µM; in the test with HT29 colon, over 100 µM; with K-562 leukemia it was 97 µM. Also, the TGI in the test with NCI-H460 lung, in the test with OVCAR-8 ovarian, in the test with PC-3 prostate, in the test on SF-295 CNS, with SK-MEL-2 melanoma and in the test with SK-MEL-28 melanoma was over 100 µM throughout. Further, the values for the TGI in the test on U251 CNS and with UACC-257 melanoma were 89.4 µM and over 100 µM, respectively.
